Like-named read-outs stand apart in the source and are kept apart here.
Legend:
Human PDE10A2 [1] = molecular target: T1, Human PDE10A2 (Homo sapiens (Human), UniProt Q9Y233); assay: Biochemical human PDE10A activity assay - PDE10A2 Phosphate Sensor Assay; conditions: cGMP 3 μM substrate, PDE10A2 0.25 nM
Description: Biochemical Human PDE10A Activity Assay—PDE10A2 Phosphate Sensor Assay
Semi Log compound dilutions starting at a final concentration of 50 μM were dispensed into a black 384 well plate alongside, DMSO and an Inhibited control using the Echo Acoustic dispenser. […] Data was analysed using a 4-parameter fit.

Human PDE10A2 [2] = molecular target: T1, Human PDE10A2; assay: Cell based human PDE10A activity assay - cAMP HTRF assay in HEK 293 rhPDE10A2 cell line
Description: Semi log compound dilutions starting at a final concentration of 10 μM were dispensed into a white 384 well plate, alongside DMSO and an Inhibited control using the Tecan D300e digital dispenser. HEK 293 cells overexpressing recombinant human PDE10A2 were seeded on top of the compounds at 2500 cells/well in a volume 5 μL/well. The plate was incubated at room temperature for 60 minutes. To induce endogenous cAMP, 5 μL/well of Forskolin at a final assay concentration of 10 μM was added to the plate. The plate was incubated at room temperature for a further 45 minutes. cAMP HTRF detection reagents were added, and the plate was incubated for 60 minutes at room temperature. […] Data was analysed using a 4-parameter fit.

[3] = Forskolin 10 μM, read-out: cAMP HTRF Assay in HEK 293 rhPDE10A2 cell line (pIC50) (converted)

T1 sequence (Q9Y233 267-1055): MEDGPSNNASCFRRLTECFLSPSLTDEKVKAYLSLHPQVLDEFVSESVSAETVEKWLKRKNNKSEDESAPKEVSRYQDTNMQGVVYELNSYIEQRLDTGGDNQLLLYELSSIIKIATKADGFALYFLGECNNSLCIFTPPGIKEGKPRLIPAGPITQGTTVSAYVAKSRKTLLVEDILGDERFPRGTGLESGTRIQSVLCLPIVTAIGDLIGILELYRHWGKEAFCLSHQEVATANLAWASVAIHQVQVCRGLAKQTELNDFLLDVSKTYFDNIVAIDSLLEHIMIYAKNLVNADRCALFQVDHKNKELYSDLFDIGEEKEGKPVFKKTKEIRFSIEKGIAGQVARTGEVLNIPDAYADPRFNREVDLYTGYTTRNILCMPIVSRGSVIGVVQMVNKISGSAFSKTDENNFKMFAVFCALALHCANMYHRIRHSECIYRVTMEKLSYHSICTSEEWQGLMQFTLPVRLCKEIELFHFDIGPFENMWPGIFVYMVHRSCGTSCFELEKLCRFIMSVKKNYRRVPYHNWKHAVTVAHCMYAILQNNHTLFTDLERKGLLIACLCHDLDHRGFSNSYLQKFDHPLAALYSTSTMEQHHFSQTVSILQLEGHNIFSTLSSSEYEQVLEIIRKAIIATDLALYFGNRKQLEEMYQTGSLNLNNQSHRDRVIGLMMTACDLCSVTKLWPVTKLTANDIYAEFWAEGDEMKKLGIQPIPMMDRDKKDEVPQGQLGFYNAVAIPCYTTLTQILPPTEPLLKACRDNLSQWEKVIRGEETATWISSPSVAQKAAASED

Row | Compound | PDE10A2 Phosphate Sensor Enzyme Assay (pIC50) (Human PDE10A2 [1]) | IC50 (Human PDE10A2 [2]; [3]) [nM] | IC50 (Human PDE10A2 [2]) [nM]
1 | Cn1ncc(-c2ccncc2)c1-c1ccc(OCc2cc(C(=O)O)c3ccccc3n2)cc1 [Example 1, 2-[[4-[2-Methyl-4-(4-pyridyl)pyrazol-3-yl]phenoxy]methyl]quinoline-4-carboxylic acid] | 9.43 | 1.95 | 
2 | Cn1ncc(-c2ccncc2)c1-c1ccc(OCc2nc3ccccc3cc2C(=O)O)cc1 [Example 2, 2-[[4-[2-Methyl-4-(4-pyridyl)pyrazol-3-yl]phenoxy]methyl]quinoline-3-carboxylic acid] | 9.69 | 0.117 | 
3 | CS(=O)(=O)n1cc(-c2ccncc2)c(-c2ccc(OCc3ccc4ccccc4n3)cc2)n1 [Example 6, 2-[[4-[1-Methylsulfonyl-4-(4-pyridyl)pyrazol-3-yl]phenoxy]methyl]quinoline] | 8.36 | 64.6 | 
4 | Cc1cccc2nc(COc3ccc(-c4nn(C)cc4-c4ccncc4)cc3)c(C(=O)N=S(C)(C)=O)cc12 [Example 7, N-[Dimethyl(oxo)-λ6-sulfanylidene]-5-methyl-2-[[4-[1-methyl-4-(4-pyridyl)pyrazol-3-yl]phenoxy]methyl]quinoline-3-carboxamide] | 9.65 | 1.48 | 
5 | CS(C)(=O)=NC(=O)c1cc(COc2ccc(-c3nn(CC(F)(F)F)cc3-c3ccncc3)cc2)nc2ccccc12 [Example 8, N-[Dimethyl(oxo)-λ6-sulfanylidene]-2-[[4-[4-(4-pyridyl)-1-(2,2,2-trifluoroethyl)pyrazol-3-yl]phenoxy]methyl]quinoline-4-carboxamide] | 10.2 | 0.38 | 
6 | CS(C)(=O)=NC(=O)c1cc(COc2ccc(-c3n[nH]cc3-c3ccncc3)cc2)nc2ccccc12 [Example 12, N-[Dimethyl(oxo)-λ6-sulfanylidene]-2-[[4-[4-(4-pyridyl)-1H-pyrazol-3-yl]phenoxy]methyl]quinoline-4-carboxamide] | 9.84 | 5.01 | 
7 | Cn1cc(-c2ccncc2)c(-c2ccc(OCc3nc4ccccc4cc3C(=O)N=S3(=O)CCCC3)cc2)n1 [Example 13, 2-[[4-[1-Methyl-4-(4-pyridyl)pyrazol-3-yl]phenoxy]methyl]-N-(1-oxothiolan-1-ylidene)quinoline-3-carboxamide] | 9.86 | 0.977 | 
8 | Cn1cc(-c2ccncc2)c(-c2ccc(OCc3nc4ccccc4cc3C(=O)N=S(C)(=O)C3CC3)cc2)n1 (centres unmarked) [Example 14, N-(Cyclopropyl-methyl-oxo-λ6-sulfanylidene)-2-[[4-[1-methyl-4-(4-pyridyl)pyrazol-3-yl]phenoxy]methyl]quinoline-3-carboxamide] | 10.0 | 0.676 | 
9 | CN(C(=O)c1cc(COc2ccc(-c3nn(C)cc3-c3ccncc3)cc2)nc2ccccc12)S(C)(=O)=O [Example 16, N-Methyl-2-[[4-[1-methyl-4-(4-pyridyl)pyrazol-3-yl]phenoxy]methyl]-N-methylsulfonyl-quinoline-4-carboxamide] | 9.87 | 0.603 | 
10 | Cn1cc(-c2ccncc2)c(-c2ccc(OCc3nc4cc(F)ccc4cc3C(=O)N=S(C)(C)=O)cc2)n1 [Example 21, N-[Dimethyl(oxo)-λ6-sulfanylidene]-7-fluoro-2-[[4-[1-methyl-4-(4-pyridyl)pyrazol-3-yl]phenoxy]methyl]quinoline-3-carboxamide] | 8.32 | 550 | 
11 | Cn1cc(-c2ccncc2)c(-c2ccc(OCc3nc4ccc(F)cc4cc3C(=O)N=S(C)(C)=O)cc2)n1 [Example 22, N-[Dimethyl(oxo)-λ6-sulfanylidene]-6-fluoro-2-[[4-[1-methyl-4-(4-pyridyl)pyrazol-3-yl]phenoxy]methyl]quinoline-3-carboxamide] | 9.49 | 17.4 | 
12 | Cn1cc(-c2ccncc2)c(-c2ccc(OCc3nc4cccc(F)c4cc3C(=O)N=S(C)(C)=O)cc2)n1 [Example 23, N-[Dimethyl(oxo)-λ6-sulfanylidene]-5-fluoro-2-[[4-[1-methyl-4-(4-pyridyl)pyrazol-3-yl]phenoxy]methyl]quinoline-3-carboxamide] | 9.59 | 3.98 | 
13 | Cc1ccc2nc(COc3ccc(-c4nn(C)cc4-c4ccncc4)cc3)c(C(=O)N=S(C)(C)=O)cc2c1 [Example 24, N-[Dimethyl(oxo)-λ6-sulfanylidene]-6-methyl-2-[[4-[1-methyl-4-(4-pyridyl)pyrazol-3-yl]phenoxy]methyl]quinoline-3-carboxamide] |  | 331 | 
14 | Cn1cc(-c2ccncc2)c(-c2ccc(OCc3cc(C(=O)N=S(C)(C)=O)c4cc(F)ccc4n3)cc2)n1 [Example 25, N-[Dimethyl(oxo)-λ6-sulfanylidene]-6-fluoro-2-[[4-[1-methyl-4-(4-pyridyl)pyrazol-3-yl]phenoxy]methyl]quinoline-4-carboxamide] | 9.41 | 3.63 | 
15 | Cn1cc(-c2ccncc2)c(-c2ccc(OCc3cc(C(=O)N=S(C)(C)=O)c4c(Cl)cccc4n3)cc2)n1 [Example 26, 5-Chloro-N-[Dimethyl(oxo)-λ6-sulfanylidene]-2-[[4-[1-methyl-4-(4-pyridyl)pyrazol-3-yl]phenoxy]methyl]quinoline-4-carboxamide] | 9.13 | 42.7 | 
16 | CCn1cc(-c2ccncc2)c(-c2ccc(OCc3cc(C(=O)N=S(C)(C)=O)c4ccccc4n3)cc2)n1 [Example 27, N-[Dimethyl(oxo)-λ6-sulfanylidene]-2-[[4-[1-ethyl-4-(4-pyridyl)pyrazol-3-yl]phenoxy]methyl]quinoline-4-carboxamide] | 10.2 | 0.537 | 
17 | CS(C)(=O)=NC(=O)c1cc(COc2ccc(-c3nn(C4CC4)cc3-c3ccncc3)cc2)nc2ccccc12 [Example 28, 2-[[4-[1-Cyclopropyl-4-(4-pyridyl)pyrazol-3-yl]phenoxy]methyl]-N-[dimethyl(oxo)-λ6-sulfanylidene]quinoline-4-carboxamide] | 9.42 | 2.75 | 
18 | O=C(O)c1cc2ccccc2nc1COc1ccc(-c2n[nH]cc2-c2ccncc2)cc1 [Example 29, 2-[[4-[4-(4-Pyridyl)-1H-pyrazol-3-yl]phenoxy]methyl]quinoline-3-carboxylic acid] | 10 | 0.347 | 
19 | O=C(O)c1cc(COc2ccc(-c3n[nH]cc3-c3ccncc3)cc2)nc2ccccc12 [Example 30, 2-[[4-[4-(4-Pyridyl)-1H-pyrazol-3-yl]phenoxy]methyl]quinoline-4-carboxylic acid] | 10.2 | 0.138 | 
20 | CS(C)(=O)=NC(=O)c1cc2ccccc2nc1COc1ccc(-c2n[nH]cc2-c2ccncc2)cc1 [Example 31, N-[Dimethyl(oxo)-λ6-sulfanylidene]-2-[[4-[4-(4-pyridyl)-1H-pyrazol-3-yl]phenoxy]methyl]quinoline-3-carboxamide] | 10 |  | 13.8
21 | CS(C)(=O)=Nc1cc(COc2ccc(-c3n[nH]cc3-c3ccncc3)cc2)nc2ccccc12 [Example 32, Dimethyl-oxo-[[2-[[4-[4-(4-pyridyl)-1H-pyrazol-3-yl]phenoxy]methyl]-4-quinolyl]imino]-λ6-sulfane] | 10.3 | 46.8 | 

Source: US20240336591A1, “ORGANIC PYRIDINE-PYRAZOLE COMPOUNDS AND THEIR USES” (priority 2021, published 2024)
